Organism: Rattus norvegicus
Assay: DrugMatrix - Regimen: Daily Repeat
Assay type: toxicity, organism-based, Sprague-Dawley
Parameters: regimen Daily Repeat, gender Male, age 6-8 weeks
Settings: in vivo, po, route oral GAVAGE, […]; for ABSOLUTE BASOPHIL / ABSOLUTE EOSINOPHIL / ABSOLUTE LYMPHOCYTE / ABSOLUTE MONOCYTE / ABSOLUTE SEGMENTED NEUTROPHIL / BASOPHIL / EOSINOPHIL / ERYTHROCYTE COUNT / HEMATOCRIT / HEMOGLOBIN / LEUKOCYTE COUNT / LYMPHOCYTE / MEAN CORPUSCULAR HEMOGLOBIN / MEAN CORPUSCULAR HEMOGLOBIN CONCENTRATION / MEAN CORPUSCULAR VOLUME / MONOCYTE / NEUTROPHIL / NUCLEATED RED BLOOD CELLS / PLATELET COUNT: tissue Blood; for ALANINE AMINOTRANSFERASE / ALBUMIN / ALKALINE PHOSPHATASE / ASPARTATE AMINOTRANSFERASE / BLOOD UREA NITROGEN / CARBON DIOXIDE / CHLORIDE / CHOLESTEROL / CREATINE PHOSPHOKINASE / CREATININE / GLUCOSE / LACTATE DEHYDROGENASE / LIPASE / PHOSPHORUS / POTASSIUM / SODIUM / TOTAL BILIRUBIN / TOTAL PROTEIN / URIC ACID: tissue Plasma
[1] = 0 mg/kg, 72 h, dose level Control, time 3 day
[2] = 0 mg/kg, 120 h, dose level Control, time 5 day
[3] = 80 mg/kg, 72 h, dose level Low, time 3 day

Structure (SMILES): CC(C)(Oc1ccc(C2CCCc3ccccc32)cc1)C(=O)O (centres undefined) [NAFENOPIN]
- ABSOLUTE BASOPHIL [1]: 0 CELLS/uL
- ABSOLUTE EOSINOPHIL [1]: 47.67 CELLS/uL
- ABSOLUTE LYMPHOCYTE [1]: 11079 CELLS/uL
- ABSOLUTE MONOCYTE [1]: 251.67 CELLS/uL
- ABSOLUTE SEGMENTED NEUTROPHIL [1]: 1505 CELLS/uL
- BASOPHIL [1]: 0%
- EOSINOPHIL [1]: 0.33%
- ERYTHROCYTE COUNT [1]: 5.31 x10E6/uL
- HEMATOCRIT [1]: 32.87%
- HEMOGLOBIN [1]: 12.27 G/DL
- LEUKOCYTE COUNT [1]: 12.88 x10E3/uL
- LYMPHOCYTE [1]: 86.17%
- MEAN CORPUSCULAR HEMOGLOBIN [1]: 23.2 pg
- MEAN CORPUSCULAR HEMOGLOBIN CONCENTRATION [1]: 37.37 G/DL
- MEAN CORPUSCULAR VOLUME [1]: 62.03 fL
- MONOCYTE [1]: 2%
- NEUTROPHIL [1]: 11.5%
- NUCLEATED RED BLOOD CELLS [1]: 0 /100WBC
- PLATELET COUNT [1]: 956.5 x10E3/uL
- ALANINE AMINOTRANSFERASE [1]: 69.67 u/L
- ALBUMIN [1]: 4.15 G/DL
- ALKALINE PHOSPHATASE [1]: 415.33 u/L
- ASPARTATE AMINOTRANSFERASE [1]: 93.17 u/L
- BLOOD UREA NITROGEN [1]: 17.33 mg/dL
- CARBON DIOXIDE [1]: 27.33 mmol/L
- CHLORIDE [1]: 100.17 MEQ/L
- CHOLESTEROL [1]: 76.5 mg/dL
- CREATINE PHOSPHOKINASE [1]: 587 u/L
- CREATININE [1]: 0.25 mg/dL
- GLUCOSE [1]: 155.5 mg/dL
- LACTATE DEHYDROGENASE [1]: 343.5 u/L
- LIPASE [1]: 11.17 u/L
- PHOSPHORUS [1]: 11.77 mg/dL
- POTASSIUM [1]: 6.51 MEQ/L
- SODIUM [1]: 140.93 MEQ/L
- TOTAL BILIRUBIN [1]: 0.2 mg/dL
- TOTAL PROTEIN [1]: 5.87 G/DL
- URIC ACID [1]: 1.43 mg/dL
- ABSOLUTE BASOPHIL [2]: 0 CELLS/uL
- ABSOLUTE EOSINOPHIL [2]: 22.67 CELLS/uL
- ABSOLUTE LYMPHOCYTE [2]: 12729.33 CELLS/uL
- ABSOLUTE MONOCYTE [2]: 424.67 CELLS/uL
- ABSOLUTE SEGMENTED NEUTROPHIL [2]: 2006.67 CELLS/uL
- BASOPHIL [2]: 0%
- EOSINOPHIL [2]: 0.17%
- ERYTHROCYTE COUNT [2]: 5.48 x10E6/uL
- HEMATOCRIT [2]: 33.32%
- HEMOGLOBIN [2]: 12.73 G/DL
- LEUKOCYTE COUNT [2]: 15.18 x10E3/uL
- LYMPHOCYTE [2]: 83.83%
- MEAN CORPUSCULAR HEMOGLOBIN [2]: 23.25 pg
- MEAN CORPUSCULAR HEMOGLOBIN CONCENTRATION [2]: 38.22 G/DL
- MEAN CORPUSCULAR VOLUME [2]: 60.85 fL
- MONOCYTE [2]: 2.83%
- NEUTROPHIL [2]: 13.17%
- NUCLEATED RED BLOOD CELLS [2]: 0 /100WBC
- PLATELET COUNT [2]: 909.83 x10E3/uL
- ALANINE AMINOTRANSFERASE [2]: 57.67 u/L
- ALBUMIN [2]: 4.03 G/DL
- ALKALINE PHOSPHATASE [2]: 472.33 u/L
- ASPARTATE AMINOTRANSFERASE [2]: 80.83 u/L
- BLOOD UREA NITROGEN [2]: 14.67 mg/dL
- CARBON DIOXIDE [2]: 31.83 mmol/L
- CHLORIDE [2]: 96 MEQ/L
- CHOLESTEROL [2]: 68 mg/dL
- CREATINE PHOSPHOKINASE [2]: 281.67 u/L
- CREATININE [2]: 0.19 mg/dL
- GLUCOSE [2]: 147.33 mg/dL
- LACTATE DEHYDROGENASE [2]: 210.83 u/L
- LIPASE [2]: 11 u/L
- PHOSPHORUS [2]: 11.63 mg/dL
- POTASSIUM [2]: 6.06 MEQ/L
- SODIUM [2]: 139.37 MEQ/L
- TOTAL BILIRUBIN [2]: 0.17 mg/dL
- TOTAL PROTEIN [2]: 5.82 G/DL
- URIC ACID [2]: 1.12 mg/dL
- ABSOLUTE BASOPHIL [3]: 0 CELLS/uL
- ABSOLUTE EOSINOPHIL [3]: 91 CELLS/uL
- ABSOLUTE LYMPHOCYTE [3]: 10987.33 CELLS/uL
- ABSOLUTE MONOCYTE [3]: 229 CELLS/uL
- ABSOLUTE SEGMENTED NEUTROPHIL [3]: 2392.67 CELLS/uL
- BASOPHIL [3]: 0%
- EOSINOPHIL [3]: 0.67%
- ERYTHROCYTE COUNT [3]: 5.31 x10E6/uL
- HEMATOCRIT [3]: 33.1%
- HEMOGLOBIN [3]: 12.4 G/DL
- LEUKOCYTE COUNT [3]: 13.7 x10E3/uL
- LYMPHOCYTE [3]: 80.33%
- MEAN CORPUSCULAR HEMOGLOBIN [3]: 23.37 pg
- MEAN CORPUSCULAR HEMOGLOBIN CONCENTRATION [3]: 37.47 G/DL
- MEAN CORPUSCULAR VOLUME [3]: 62.37 fL
- MONOCYTE [3]: 1.67%
- NEUTROPHIL [3]: 17.33%
- NUCLEATED RED BLOOD CELLS [3]: 0 /100WBC
- PLATELET COUNT [3]: 1097 x10E3/uL
- ALANINE AMINOTRANSFERASE [3]: 88 u/L
- ALBUMIN [3]: 4.7 G/DL
- ALKALINE PHOSPHATASE [3]: 593 u/L
- ASPARTATE AMINOTRANSFERASE [3]: 109.67 u/L
- BLOOD UREA NITROGEN [3]: 15.33 mg/dL
- CARBON DIOXIDE [3]: 25.67 mmol/L
- CHLORIDE [3]: 102.33 MEQ/L
- CHOLESTEROL [3]: 44.33 mg/dL
- CREATINE PHOSPHOKINASE [3]: 372 u/L
- CREATININE [3]: 0.23 mg/dL
- GLUCOSE [3]: 141 mg/dL
- LACTATE DEHYDROGENASE [3]: 370.67 u/L
- LIPASE [3]: 10.67 u/L
- PHOSPHORUS [3]: 12.4 mg/dL
- POTASSIUM [3]: 6.4 MEQ/L
- SODIUM [3]: 144.37 MEQ/L
- TOTAL BILIRUBIN [3]: 0.1 mg/dL
- TOTAL PROTEIN [3]: 5.57 G/DL
- URIC ACID [3]: 1.3 mg/dL
